Consider 19 molecules from patent US11839212B2, “Synergistic pesticidal compositions and methods for delivery of insecticidal active ingredients” (0903608 B.C. Ltd., priority 2018, dated 2023).

As usually defined, the MIC is the least concentration at which growth counts as inhibited.

Where two headings read alike, the source gives them in different places.

Holding throughout (experiment): Synergistic Growth Inhibition Assay (MIC and FIC index, 96-well, resazurin)
Common to all, as to type: cell-based

One test deals with Fusarium oxysporum. The following applies: Fusarium oxysporum, Compound B alone. On the procedure: (§1) In some embodiments, the synergistic action between the pesticidal active ingredient, and the at least one C6-C10 (or alternatively C11 or C12) saturated or unsaturated aliphatic acid components of the pesticidal compositions according to embodiments of the present disclosure was tested using a Synergistic Growth Inhibition Assay, which is derived from and related to a checkerboard assay as is known in the art for testing of combinations of antimicrobial agents. In the Synergistic Growth Inhibition Assay used in accordance with some embodiments of the present disclosure, multiple dilutions of combinations of pesticidal active ingredient and at least one C6-C10 saturated or unsaturated aliphatic acid agents are tested in individual cells for inhibitory activity against a target pest or pathogenic organism. In one such embodiment, the combinations of pesticidal active ingredient and C6-C10 (or alternatively C11 or C12) saturated or unsaturated aliphatic acid agents may preferably be tested in decreasing concentrations. In a further such embodiment, the combinations of pesticidal active ingredient and C6-C10 (or alternatively C11 or C12) saturated or unsaturated aliphatic acid agents may be tested in increasing concentrations. These multiple combinations of the pesticidal active ingredient and at least one C6-C10 (or alternatively C11 or C12) saturated or unsaturated aliphatic acid agents may be prepared in 96-well microtiter plates. In one such embodiment, the Synergistic Growth Inhibition Assay then comprises rows which each contain progressively decreasing concentrations of the pesticidal active ingredient and one or more C6-C10 (or alternatively C11 or C12) saturated or unsaturated aliphatic acid agents to test for the MIC of the agents in combination at which growth of the target pest or pathogen is inhibited. Thus, each well of the microtiter plate is a unique combination of the two agents, at which inhibitory efficacy of the combination against the target pest or pathogen can be determined.
(§2) In one embodiment according to the present disclosure, for each row of microtiter cells in the Synergistic Growth Inhibition Assay, the FIC index is calculated from the lowest concentration of the pesticidal active ingredient and one or more C6-C10 saturated or unsaturated aliphatic acid agents necessary to inhibit growth of a target pest or pathogen. The FIC of each component is derived by dividing the concentration of the agent present in that well of the microtiter plate by the minimal inhibitory concentration (MIC) needed of that agent alone to inhibit growth of the target pest or pathogen. The FIC index is then the sum of these values for both agents in that well of the microtiter plate. […] Fractional inhibitory concentration indices may then used as measure of synergy. […] When the FIC index is equal to 1, the combination is additive.
(§3) Then, serial dilutions of these initial compositions in successive wells in the row of the microtiter plate were used to assay the pesticidal composition under the same conditions to determine the concentration of the composition combining the two agents corresponding to the microtiter well in which growth inhibition of the target pest or organism ceases.
Resazurin dye (also known as Alamar blue dye) was used as an indicator to determine the presence of growth or inhibition of growth of Fusarium oxysporum in the wells of the 96 well microtiter plates used in the exemplary Synergistic Growth Inhibition Assay. In addition to the color change of the resazurin dye in the presence of growth of the Fusarium oxysporum, an optical or visual examination of the microtiter well may also be made to additionally determine the presence of growth or inhibition of growth of the Fusarium oxysporum.

The subject of the next test is Botrytis cinerea. Conditions: for MIC: Botrytis cinerea, 48 h. The protocol: as §1, §2, §3
Similarly to as described above, Resazurin was used as an indicator of growth or inhibition of growth of Botrytis cinerea in the exemplary Synergistic Growth Inhibition Assay. In addition to the color change of the resazurin, an optical or visual examination of the microtiter well may also be made to additionally determine the presence of growth or inhibition of growth of the Botrytis cinerea.

Another test has as its system Sclerotinia sclerotiorum. Conditions: for MIC: Sclerotinia sclerotiorum. On the procedure: as §1, §2, §3
Similarly to as described above, Resazurin was used as an indicator of growth or inhibition of growth of Sclerotinia sclerotiorum in the exemplary Synergistic Growth Inhibition Assay. In addition to the color change of the resazurin, an optical or visual examination of the microtiter well may also be made to additionally determine the presence of growth or inhibition of growth of the Sclerotinia sclerotiorum.

Setting [1] is: 48 h, Table 27, 48 hours incubation, read-out: MIC (B).
Setting [2] is: 48 h, Table 30, 48 hours incubation, read-out: MIC (B).
Where [3] appears, read: Table 51, Compound B alone, 48 hours incubation, read-out: MIC (B).
Setting [4] is: Table 56, Compound B alone, 48 hours incubation, read-out: MIC (B).
Where [5] appears, read: Table 59, Compound B alone, 48 hours incubation, read-out: MIC (B).
[6] abbreviates: Table 54, Compound B alone, 48 hours incubation, read-out: MIC (B).
[7] abbreviates: Table 20B, Compound A alone, incubation 7 days, read-out: MIC (A).
Setting [8] is: Table 24, Compound B alone, 48 hours incubation, read-out: MIC (B).
The mark [9] stands for this setting: Table 25, Compound B alone, 48 hours incubation, read-out: MIC (B).
Setting [10] is: Table 26, Compound B alone, 48 hours incubation, read-out: MIC (B).

In the case of `CC=CCCC(=O)O` [4-Hexenoic acid], the MIC with Fusarium oxysporum (setting [1]) came out at 312 µg/mL; in the test with Fusarium oxysporum (setting [2]), 312 µg/mL; with Botrytis cinerea (Table 43, Compound B alone, 48 hours incubation, read-out: MIC (B)) it was 312 µg/mL; with Botrytis cinerea (Table 45, Compound B alone, 48 hours incubation, read-out: MIC (B)), 312 µg/mL.

Turning to `CCCCCCCCC(C)C(=O)O` (stereo not drawn) [2-Methyldecanoic acid], the MIC is 7.81 µg/mL in the test on Botrytis cinerea (setting [3]), 125 µg/mL in the test on Botrytis cinerea (setting [4]) and 125 µg/mL in the test on Botrytis cinerea (setting [5]).

With `CCCCCCCCCC(=O)[O-].[K+]` [Decanoic acid, potassium salt, decanoic acid, potassium salt], the MIC was 78.1 µg/mL in the test on Fusarium oxysporum (24 h, read-out: MIC(B), Table 7, 24 hour incubation) and 78.1 µg/mL with Fusarium oxysporum (read-out: MIC (B), Table 8).

Turning to `CCCCCCCC/C=C\CCCCCCCC(=O)O` [Oleic acid], the MIC in the test with Botrytis cinerea (setting [6]) and in the test with Botrytis cinerea (setting [4]) was 5000 µg/mL each time.

`CCCC1COC(Cn2cncn2)(c2ccc(Cl)cc2Cl)O1` (stereo not drawn) [Propiconazole, reference compound]: the MIC in the test on Botrytis cinerea (Table 24, Compound A alone, 48 hours incubation, read-out: MIC (A)) amounted to 89 µg/mL; with Sclerotinia sclerotiorum (Table 18, Compound A alone, incubation 7 days, read-out: MIC (A)), 89 µg/mL; with Sclerotinia sclerotiorum (setting [7]), 89 µg/mL; in the test with Sclerotinia sclerotiorum (Table 39, Compound A alone, 7 days incubation, read-out: MIC (A)), 89 µg/mL.

Regarding `O=C(O)CCCCCCCO` [8-Hydroxyoctanoic acid], the MIC was found to be 1250 µg/mL in the test on Botrytis cinerea (read-out: MIC (B), Table 51, Compound B alone, 48 hours incubation); 2500 µg/mL in the test on Botrytis cinerea (read-out: MIC (B), Table 56, Compound B alone, 48 hours incubation); 1250 µg/mL in the test on Botrytis cinerea (read-out: MIC (B), Table 59, Compound B alone, 48 hours incubation).

Consider `CCCCC(O)C(=O)O` (stereo not drawn) [2-hydroxyhexanoic acid], for which, in the test on Botrytis cinerea (setting [5]), the MIC is 1250 µg/mL.

For the molecule `CCCCCCC/C=C\C(=O)O` [Cis-2-decenoic acid], in the test on Sclerotinia sclerotiorum (Table 34, Compound B alone, 7 days incubation, read-out: MIC (B)), the MIC came out at 19.5 µg/mL.

As to `CCCCC/C=C/C(=O)O` [Trans-2-octenoic acid, trans-2-octenoic acid], the MIC in the test on Fusarium oxysporum (24 h, Table 3, 24 hour incubation, read-out: MIC(B)) came to 149 µg/mL; in the test with Fusarium oxysporum (24 h, Table 4, 24 hour incubation, read-out: MIC (B)), 149 µg/mL; in the test with Fusarium oxysporum (setting [1]) it was 312 µg/mL; in the test with Fusarium oxysporum (setting [2]) it was 156 µg/mL; in the test with Fusarium oxysporum (48 h, Table 31, 48 hours incubation, read-out: MIC (B)) it was 156 µg/mL; in the test with Fusarium oxysporum (48 h, Table 32, 48 hours incubation, read-out: MIC (B)) it was 312 µg/mL.

`COCC(=O)N(c1c(C)cccc1C)C(C)C(=O)OC` (stereo not drawn) [Metalaxyl, reference compound]: the MIC is 316 µg/mL with Botrytis cinerea (Table 23, Compound A alone, incubation 48 hours, read-out: MIC (A)); 316 µg/mL in the test on Botrytis cinerea (Table 26, Compound A alone, 48 hours incubation, read-out: MIC (A)); 316 µg/mL with Botrytis cinerea (Table 48, Compound A alone, 48 hours incubation, read-out: MIC (A)); 1260 µg/mL in the test with Sclerotinia sclerotiorum (setting [7]).

`Cc1cc(C(F)(F)F)nn1CC(=O)N1CCC(c2nc(C3=NOC(c4c(F)cccc4F)C3)cs2)CC1` (stereo not drawn) [Oxathiapiprolin, reference compound]: the “MIC (A)” value in the test on Botrytis cinerea (Table 55, Compound A alone, 48 hours incubation) stood at 500 µg/mL.

On to `CCC(CC)(CC)C(=O)O` [2,2-Diethylbutanoic acid], for which the MIC with Botrytis cinerea (setting [3]) and in the test with Botrytis cinerea (setting [5]) was 250 µg/mL each time.

Regarding `C/C=C/C=C/C(=O)[O-].[K+]` [(2E,4E)-2,4-hexadienoic acid, potassium salt], the MIC in the test with Fusarium oxysporum (24 h, read-out: MIC (B), Table 2, 24 hour incubation) came out at 625 µg/mL; in the test with Fusarium oxysporum (24 h, read-out: MIC(B), Table 1, 24 hour incubation), 625 µg/mL.

Consider `CCCCCCC(C)C(=O)O` (stereo not drawn) [2-Methyloctanoic acid], for which the results for the minimum inhibitory concentration (MIC) in the test on Botrytis cinerea (setting [3]), in the test with Botrytis cinerea (setting [4]) and with Botrytis cinerea (setting [5]) were 39.1 µg/mL, 312 µg/mL and 78.1 µg/mL, respectively.

`CCCCCCCC/C=C\CCCCCCCC(=O)O` [(9Z)-octadecenoic acid]: the “MIC (B)” value in the test on Botrytis cinerea (Table 49, Compound B alone, 48 hours incubation) amounted to 5000 µg/mL; with Botrytis cinerea (Table 50, Compound B alone, 48 hours incubation) it was 5000 µg/mL; in the test on Sclerotinia sclerotiorum (Table 33, Compound B alone, 7 days incubation) it was 5000 µg/mL.

With `CCCCCCCCC(O)C(=O)O` (stereo not drawn) [2-Hydroxydecanoic acid], the MIC in the test with Botrytis cinerea (setting [5]) was 312 µg/mL.

Consider `CCCCCCCCCCCC(=O)O` [Dodecanoic acid, dodecanoic acid], for which the MIC stood at 25 µg/mL in the test on Botrytis cinerea (Table 21, Compound B alone, incubation 48 hours, read-out: MIC (B)); 50 µg/mL in the test on Botrytis cinerea (setting [8]); 50 µg/mL in the test with Botrytis cinerea (setting [9]); 50 µg/mL in the test on Botrytis cinerea (setting [10]); 50 µg/mL in the test on Botrytis cinerea (setting [6]); 50 µg/mL with Botrytis cinerea (setting [4]). The MIC in the test with Sclerotinia sclerotiorum (Table 16, Compound B alone, incubation 7 days, read-out: MIC (B)) is 50 µg/mL; in the test with Sclerotinia sclerotiorum (Table 17, Compound B alone, incubation 7 days, read-out: MIC (B)) it was 50 µg/mL; with Sclerotinia sclerotiorum (Table 18, Compound B alone, incubation 7 days, read-out: MIC (B)) it was 50 µg/mL; in the test on Sclerotinia sclerotiorum (Table 20A, Compound B alone, incubation 7 days, read-out: MIC (B)), 25 µg/mL.

For the molecule `CCCCCCCCCC(=O)O` [Decanoic acid, decanoic acid], the MIC in the test on Botrytis cinerea (Table 22, Compound B alone, incubation 48 hours, read-out: MIC (B)) is 78.1 µg/mL; in the test on Botrytis cinerea (setting [8]), 312 µg/mL; in the test on Botrytis cinerea (setting [9]) it was 15.6 µg/mL; with Botrytis cinerea (setting [10]), 78.1 µg/mL; in the test on Botrytis cinerea (Table 52, Compound B alone, 48 hours incubation, read-out: MIC(B)), 15.6 µg/mL; in the test on Botrytis cinerea (setting [6]) it was 15.6 µg/mL.

Turning to `CON=C(C(=O)OC)c1ccccc1CON=C(C)c1cccc(C(F)(F)F)c1` [Trifloxystrobin, reference compound], the minimum inhibitory concentration (MIC) with Botrytis cinerea (Table 58, Compound A alone, 48 hours incubation, read-out: MIC (A)) worked out at 250 µg/mL; in the test on Botrytis cinerea (Table 59, Compound A alone, 48 hours incubation, read-out: MIC (A)) it was 250 µg/mL.
